The text below walks through data of patent publication US6617358B1, “Anticonvulsant and central nervous system-depressing bis(fluorophenyl)alkylamides and their uses” (NPS Pharmaceuticals, Inc., priority 1997, dated 2003).

Structures are written as SMILES.

The experiment relates to flexor reflex in normal anesthetized rats. The experiment can be described thus: Flexor reflex in normal anesthetized rats (FIG. 3). In kind it is in vivo, rat. Particulars: in comparison to baclofen, FIG. 3 legend only, values not given. An excerpt:
Baclofen, diazepam (Valium), and tizanidine are effective on different parameters of spasticity (EMG recordings, H-reflex, the H/M ratio, mono- and polysynaptic reflexes, clonus, hyperreflexia) in these models. The flexor reflex is a polysynaptic response elicited by stimulation of the bottom of the foot and models the withdrawal reflex.

`NC(=O)CC(c1cccc(F)c1)c1cccc(F)c1` [Compound 1, 3,3-bis(3-fluorophenyl)propanamide]: the “reduction in the flexor reflex” value is reported as “reduction in the flexor reflex”.
